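All cell lines were grown in 96-well plates and treated with compound for 48 hours. GI50 is the concentration that inhibits growth by half.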 Active and inactive are the calls of the source. No stated cut-off is given here; in the data, active = GI50 up to about 1.1 µM and inactive = higher.
Columns and labels:
Assay in all cases: growth of human tumour cells (NCI), 48 h
[1] = system: CCRF-CEM
[2] = system: DU-145
[3] = system: HCC 2998
[4] = system: HCT-15
[5] = system: IGROV-1
[6] = system: K562
[7] = system: LOX IMVI
[8] = system: OVCAR-4
[9] = system: OVCAR-5
[10] = system: OVCAR-8
[11] = system: PC-3
[12] = system: RPMI-8226
[13] = system: SF-295
[14] = system: SK-MEL-28
[15] = system: SR
[16] = system: TK-10
[17] = system: U-251
[18] = system: UACC-257
[19] = system: UACC-62
[20] = system: UO-31

Measured: GI50

CCc1cccc(C(C)C)c1NC1=C([n+]2ccc(C)cc2)C(=O)c2ccccc2C1=O.[O-][Cl+3]([O-])([O-])[O-]
inactive: [3] 3210 nM | [6] 1910 nM | [8] 1730 nM | [9] 5300 nM | [11] 1540 nM | [13] 1870 nM | [14] 7640 nM | [16] 7870 nM | [20] 1230 nM
active: [1] 210 nM | [2] 667 nM | [5] 284 nM | [7] 673 nM | [10] 962 nM | [12] 423 nM | [15] 52.5 nM | [17] 887 nM | [18] 993 nM | [19] 822 nM
3620 nM: [4]

Source: ChEMBL document CHEMBL1201862, “PubChem BioAssay data set” (2004)
